Activity calls are given as the source filed them. No cut-off for these calls is given here.
target: T1, Maltase-glucoamylase (Homo sapiens, UniProt O43451); assay: Inhibition of alpha-glucosidase at 100 uM
Target sequence in this assay (O43451 whole entry, looked up): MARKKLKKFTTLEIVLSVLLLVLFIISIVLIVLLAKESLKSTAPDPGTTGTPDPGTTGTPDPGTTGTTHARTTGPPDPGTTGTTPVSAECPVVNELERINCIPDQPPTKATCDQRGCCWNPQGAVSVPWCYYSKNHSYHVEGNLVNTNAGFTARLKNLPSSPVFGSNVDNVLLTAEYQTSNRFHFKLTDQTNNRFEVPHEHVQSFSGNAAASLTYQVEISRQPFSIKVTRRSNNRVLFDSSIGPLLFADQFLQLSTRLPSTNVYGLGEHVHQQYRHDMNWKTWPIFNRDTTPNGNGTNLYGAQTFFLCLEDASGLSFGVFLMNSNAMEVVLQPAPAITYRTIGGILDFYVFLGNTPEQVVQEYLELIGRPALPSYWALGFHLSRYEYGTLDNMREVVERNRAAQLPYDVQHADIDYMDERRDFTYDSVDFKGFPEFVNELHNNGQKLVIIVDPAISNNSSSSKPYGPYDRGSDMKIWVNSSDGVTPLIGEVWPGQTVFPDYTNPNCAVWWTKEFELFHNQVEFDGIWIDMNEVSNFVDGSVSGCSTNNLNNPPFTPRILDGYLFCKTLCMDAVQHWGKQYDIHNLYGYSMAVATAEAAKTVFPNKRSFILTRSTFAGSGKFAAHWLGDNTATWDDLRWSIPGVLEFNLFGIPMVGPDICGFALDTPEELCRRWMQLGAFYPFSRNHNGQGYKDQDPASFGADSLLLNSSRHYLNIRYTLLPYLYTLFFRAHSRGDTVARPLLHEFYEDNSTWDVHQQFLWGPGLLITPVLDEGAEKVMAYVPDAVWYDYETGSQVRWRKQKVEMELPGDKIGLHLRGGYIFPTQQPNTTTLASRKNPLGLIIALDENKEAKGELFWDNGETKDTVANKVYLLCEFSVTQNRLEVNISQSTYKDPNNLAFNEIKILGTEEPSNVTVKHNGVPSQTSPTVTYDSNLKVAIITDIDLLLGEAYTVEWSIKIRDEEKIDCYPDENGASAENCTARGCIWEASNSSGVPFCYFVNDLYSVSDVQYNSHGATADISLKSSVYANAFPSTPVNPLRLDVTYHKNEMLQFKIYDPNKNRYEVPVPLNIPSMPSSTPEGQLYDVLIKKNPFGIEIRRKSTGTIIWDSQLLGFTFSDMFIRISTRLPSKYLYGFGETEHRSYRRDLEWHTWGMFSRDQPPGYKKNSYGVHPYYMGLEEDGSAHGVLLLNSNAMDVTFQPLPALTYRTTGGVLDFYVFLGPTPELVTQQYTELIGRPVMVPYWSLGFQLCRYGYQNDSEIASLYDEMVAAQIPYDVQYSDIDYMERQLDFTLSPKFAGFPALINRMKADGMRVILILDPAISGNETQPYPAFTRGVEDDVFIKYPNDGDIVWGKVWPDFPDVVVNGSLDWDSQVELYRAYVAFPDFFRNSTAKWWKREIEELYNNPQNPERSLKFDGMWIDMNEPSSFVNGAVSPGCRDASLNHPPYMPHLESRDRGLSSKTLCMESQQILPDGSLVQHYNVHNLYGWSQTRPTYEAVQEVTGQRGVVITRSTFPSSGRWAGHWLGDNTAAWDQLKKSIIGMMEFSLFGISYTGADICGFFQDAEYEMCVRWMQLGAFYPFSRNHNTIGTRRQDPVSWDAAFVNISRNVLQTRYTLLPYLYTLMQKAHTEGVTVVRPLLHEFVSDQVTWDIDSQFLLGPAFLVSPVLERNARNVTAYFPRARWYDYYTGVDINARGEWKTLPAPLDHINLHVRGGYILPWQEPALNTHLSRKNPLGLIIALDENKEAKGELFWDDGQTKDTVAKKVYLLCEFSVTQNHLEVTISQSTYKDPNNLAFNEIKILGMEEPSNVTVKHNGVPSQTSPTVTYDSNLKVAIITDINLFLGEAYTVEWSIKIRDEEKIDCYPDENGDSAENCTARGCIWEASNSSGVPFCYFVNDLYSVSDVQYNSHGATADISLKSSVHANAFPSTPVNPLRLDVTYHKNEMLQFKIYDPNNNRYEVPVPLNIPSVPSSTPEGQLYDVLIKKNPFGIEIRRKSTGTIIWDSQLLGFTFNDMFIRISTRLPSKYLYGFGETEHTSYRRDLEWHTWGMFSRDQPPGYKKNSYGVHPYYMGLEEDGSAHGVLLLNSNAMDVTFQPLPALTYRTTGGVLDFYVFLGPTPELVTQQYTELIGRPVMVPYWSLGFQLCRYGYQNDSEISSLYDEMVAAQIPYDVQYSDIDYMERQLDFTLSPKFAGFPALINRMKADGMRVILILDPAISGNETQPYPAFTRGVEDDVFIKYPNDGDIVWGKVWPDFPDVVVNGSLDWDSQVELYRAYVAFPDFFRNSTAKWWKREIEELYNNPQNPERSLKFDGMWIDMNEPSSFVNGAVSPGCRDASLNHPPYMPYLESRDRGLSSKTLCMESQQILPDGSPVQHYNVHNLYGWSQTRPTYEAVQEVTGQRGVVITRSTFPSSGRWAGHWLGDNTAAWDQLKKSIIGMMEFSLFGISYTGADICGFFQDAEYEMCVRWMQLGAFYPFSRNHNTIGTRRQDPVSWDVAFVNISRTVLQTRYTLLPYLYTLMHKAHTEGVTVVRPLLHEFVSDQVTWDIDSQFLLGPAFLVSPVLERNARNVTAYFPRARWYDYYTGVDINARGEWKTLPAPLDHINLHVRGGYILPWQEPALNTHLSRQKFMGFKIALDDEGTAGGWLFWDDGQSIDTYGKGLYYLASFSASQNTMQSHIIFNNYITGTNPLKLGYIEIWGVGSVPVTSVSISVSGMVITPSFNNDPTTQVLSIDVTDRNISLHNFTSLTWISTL

Row | Activity | inhibition [%] | SMILES
1 | inactive | – | C=C1CC[C@@H]2[C@](C)(CO)[C@H](O)CC[C@@]2(C)[C@@H]1CCC1CCOC1=O (stereo partly specified)
2 | inactive | – | C[C@]1(CO)[C@H]2CC[C@@]3(CO3)[C@@H](C/C=C3/C(=O)OC[C@H]3O)[C@]2(C)CC[C@H]1O
3 | – | 100 | C=C1CC[C@@H]2[C@](C)(COC(=O)c3cccnc3)[C@H](OC(=O)c3cccnc3)CC[C@@]2(C)[C@@H]1/C=C/C1=CC(=C\c2ccc(OC)cc2)/OC1=O
4 | inactive | – | C=C1CC[C@@H]2[C@](C)(CO)[C@H](O)CC[C@@]2(C)[C@@H]1C/C=C1/C(=O)OC[C@H]1O
5 | – | 49.6 | C=C1CC[C@@H]2[C@](C)(CO)[C@H](O)CC[C@@]2(C)[C@@H]1/C=C/C1=CC(=C/c2ccco2)/OC1=O
6 | – | 100 | C=C1CC[C@@H]2[C@](C)(COC(=O)c3cccnc3)[C@H](OC(=O)c3cccnc3)CC[C@@]2(C)[C@@H]1/C=C/C1=CC(=C\c2ccc(Cl)cc2)/OC1=O
7 | – | 60.6 | C=C1CC[C@@H]2[C@](C)(CO)[C@H](O)CC[C@@]2(C)[C@@H]1/C=C/C1=CC(=C/c2ccc(N(C)C)cc2)/OC1=O
8 | – | 57.8 | C=C1CC[C@@H]2[C@](C)(CO)[C@H](O)CC[C@@]2(C)[C@@H]1/C=C/C1=CC(=C/c2cc(OC)c(OC)cc2OC)/OC1=O
9 | – | 95.9 | C=C1CC[C@@H]2[C@](C)(COC(=O)c3cccnc3)[C@H](OC(=O)c3cccnc3)CC[C@@]2(C)[C@@H]1/C=C/C1=CC(=C/c2ccco2)/OC1=O
10 | inactive | – | C=C1CC[C@@H]2[C@](C)(CO)[C@H](O)CC[C@@]2(C)[C@@H]1/C=C/C1=CC(=C\C(C)=C\CCC/C=C/C)/OC1=O
11 | – | 59.3 | C=C1CC[C@@H]2[C@](C)(CO)[C@H](O)CC[C@@]2(C)[C@@H]1/C=C/C1=CC(=C/c2ccc3c(c2)OCO3)/OC1=O
12 | – | 84.3 | C=C1CC[C@@H]2[C@](C)(CO)[C@H](O)CC[C@@]2(C)[C@@H]1/C=C/C1=CC(=C/c2ccccc2)/OC1=O
13 | – | 74.8 | C=C1CC[C@@H]2[C@](C)(COC(=O)c3cccnc3)[C@H](OC(=O)c3cccnc3)CC[C@@]2(C)[C@@H]1/C=C/C1=CC(=C\c2ccc(N(C)C)cc2)/OC1=O
14 | inactive | – | C=C1CC[C@@H]2[C@](C)(CO)[C@H](O)CC[C@@]2(C)[C@@H]1/C=C/C1=CC(=C/c2ccc(F)cc2)/OC1=O
15 | – | 68.9 | C=C1CC[C@@H]2[C@](C)(COC(=O)c3cccnc3)[C@H](OC(=O)c3cccnc3)CC[C@@]2(C)[C@@H]1/C=C/C1=CC(=C\C(C)=C\CCC/C=C/C)/OC1=O
16 | – | 100 | C=C1CC[C@@H]2[C@](C)(COC(=O)c3cccnc3)[C@H](OC(=O)c3cccnc3)CC[C@@]2(C)[C@@H]1/C=C/C1=CC(=C\c2ccccc2)/OC1=O
17 | – | 6.9 | C=C1CC[C@@H]2[C@]3(C)COCO[C@@H]3CC[C@@]2(C)[C@@H]1CC(O)C1=CCOC1=O (stereo partly specified)
18 | inactive | – | C=C1CC[C@@H]2[C@](C)(CO)[C@H](O)CC[C@@]2(C)[C@@H]1/C=C/C1=CC(=C/c2ccc(Cl)cc2)/OC1=O
19 | – | 100 | C=C1CC[C@@H]2[C@](C)(COC(=O)c3cccnc3)[C@H](OC(=O)c3cccnc3)CC[C@@]2(C)[C@@H]1/C=C/C1=CC(=C\c2cccc(Br)c2)/OC1=O

target: T1, Maltase-glucoamylase; assay: Inhibition of alpha-glucosidase at 1 mM
Target sequence in this assay (O43451 whole entry, looked up): as above

Row | inhibition [%] | SMILES
20 | 56.5 | C[C@H]1O[C@H](O[C@H]2[C@H](O)[C@@H](O)[C@@H](O[C@H]3[C@H](O)[C@@H](O)C(O)O[C@@H]3CO)O[C@@H]2CO)[C@H](O)[C@@H](O)[C@@H]1N[C@H]1C=C(CO)[C@@H](O)[C@H](O)[C@H]1O (stereo partly specified)

target: T1, Maltase-glucoamylase; assay: Inhibition of alpha-glucosidase
Target sequence in this assay (O43451 whole entry): as the sequence (O43451 whole entry, looked up) above

Row | IC50 [µM] | SMILES
21 | 16 | C=C1CC[C@@H]2[C@](C)(CO)[C@H](O)CC[C@@]2(C)[C@@H]1/C=C/C1=CC(=C/c2ccc(OC)cc2)/OC1=O

From ChEMBL document CHEMBL1139933, “Synthesis of andrographolide derivatives: a new family of alpha-glucosidase inhibitors” (Bioorg Med Chem, 2007)
